No end group written: not given here. PVA‑NB hydrogel particulates = not defined here
Experiments:
whole blood = test: Rotational thromboelastometry (ROTEM) of recalcified citrated whole blood; format: cell-based, human; conditions: for clotting time (CT) vs saline control / clot formation time (CFT) vs saline control: 1 mM; for clotting time (CT) vs saline control: FIG. 8A; for clot formation time (CFT) vs saline control: FIG. 8B; for clotting time (CT) as % of the physiological CT: whole blood
Source text: ROTEM (TEM Innovation, Germany) was applied to monitor the interactions of platelet-activating polymers and whole blood over time. ROTEM system contains an oscillating sensor pin that is immersed in a temperature-controlled cuvette containing the blood sample. Four measurements can be performed in parallel in the same device. Generally, coagulation of the citrated blood sample is initiated by re-calcification. The formation kinetics of a fibrin clot could be monitored mechanically and calculated by an integrated computer to the typical curves and numerical parameters.
Blood was collected from three un-medicated and healthy donors using minimal stasis from an antecubital vein through a 21-gauge needle. After discarding the first 3 ml, blood was collected in 3.5 ml tubes (Vacuette; Greiner Bio-One) containing 0.3 ml buffered 3.2% sodium citrate. The samples were kept on a pre-warming stage at 37° C. for at least 10 min prior to analysis and were processed within 3 h. ROTEM analysis of the whole blood sample was initiated by recalcification with the addition of 20 μl of CaCl2 (star-TEM®, 200 mM). Polymer solutions and/or polymer suspensions were added directly to the cuvette immediately after recalcification of the citrated blood and mixed by gently pipetting up and down as previously reported.^[21] The final reaction volume per ROTEM cuvette was 370 μl, consisting of 300 μl citrated whole blood, 20 μl CaCl2 and 50 μl polymer solution or polymer suspension.
We next studied the hemostatic efficacy of PVA-TRAP6 in comparison with TRAP6 and PVA-NB using rotational thromboelastometry (ROTEM),^[21, 22] which is a clinical diagnostic tool allowing in situ characterization of viscoelastic properties of blood clot during coagulation. […] Clotting time (CT) refers to the latency until the clot reaches a firmness of 2 mm while maximum clot firmness (MCF) refers to the maximum amplitude of the curve, which indicates the absolute strength of the clot.

platelets [1] = test: FACS analysis of platelet activation (CD41/CD62p co-expression); format: cell-based, human
Method: The blood of two unmedicated and healthy donors was collected and stabilized by sodium citrate. […] Twenty microliter of TRAP6-C solution (14 mg mL^−1) and/or 20 μL of NaCl solution (0.9%) were added as the positive control and the negative control, respectively. The incubated mixture was mixed with 300 μL of 1% paraformaldehyde for 15 min at room temperature. After washing and centrifugation a double immuno-staining was performed using 20 μL of phycoerythrin (PE) labeled monoclonal antibody directed against CD41 and 20 μL of allophycocyanin (APC) labeled monoclonal antibody directed against CD62P. Isotype controls were incubated with mouse IgG antibodies conjugated with APC or PE dye, respectively (all antibodies were purchased from BD Biosciences, Heidelberg, Germany). After 30 min incubation at room temperature the activation state of the platelets was determined using fluorescence flow cytometry. Expression of the platelet activation marker CD62P and the constitutively present platelet marker CD41 were detected using a Beckmann Coulter Cytomics FC-500 equipped with Uniphase Argon ion laser, 488 nm, 20 mW output. Overall 100 000 platelets were measured per sample and analyzed with the Cytomics CXP software. The experiment was repeated twice.
We next utilized flow cytometry (FACS) to quantify the extent of platelet activation. Platelets can be distinguished from other blood cells by the constitutive expression of the surface antigen CD41, which recognizes the platelet membrane glycoprotein GpIIb which is non-covalently associated with GpIIIa (the integrin beta 3 chain) to form the GpIIb/IIIa complex. Importantly, the CD62p (P-selectin) membrane glycoprotein is exclusively expressed on activated platelets. The CD62p marker was used to identify the extent of activation in human platelets after incubation with the studied materials (PVA-TRAP6, TRAP6, PVA-NB, and NaCl).

platelets [2] = test: Multiplate platelet aggregation assay in hirudinized whole blood; format: cell-based, human; conditions: for aggregation area: 0.1 mM TRAP6 equivalent, 6 min measurement
Method: The principle of Multiplate test is based on the fact that platelets become sticky upon activation, and thus prone to adhere and aggregate on the metal sensor wires in the Multiplate test cuvette. The sensor wires are made of highly conductive copper, which is silver-coated. As activated platelets adhere and aggregate on the sensor wires, the electrical resistance between the wires rises, which can be monitored in real time. For each measurement, 300 μL of saline and 300 μL of hirudinized whole blood was added sequentially to a Multiplate cuvette. After 3 min incubation at 37° C., 20 μL of sample solution was added and at the same time the program started to collect signals. The Multiplate device allows 4 measurements in parallel. Each measurement was performed for 6 min and in duplicate.
In order to quantify the extent of platelet activation, we utilized Multiplate assay to investigate the influence of PVA-TRAP6, TRAP6 and PVA-NB on platelet aggregation. The principle of this method is based on the fact that platelets become sticky upon activation, and thus prone to adhere and aggregate on the metal sensor wires in the Multiplate test cuvette. As activated platelets adhere and aggregate on the sensor wires, the electrical resistance between the wires rises, which can be continuously monitored. […] One key parameter of Multiplate assay is aggregation area (in Units), i.e. the area underneath the aggregation curve.

platelets [3] = conditions: from reference [12]; cited from earlier work

Method for C2C12 myoblasts: Cytotoxicities of PVA, PVA-NB and PVA-TRAP6 macromer solutions were evaluated via MTT assay. C2C12 cells were cultured in Dulbecco's Modified Eagles Medium (DMEM) supplemented with 5% fetal calf serum (FCS), 1% L-Glutamine, 1% Penicillin/Streptomycin (all from Sigma-Aldrich, Austria). Macromer solutions with three concentrations (5%, 1% and 0.1%) were prepared in DMEM culture medium. C2C12 cells were then seeded in a 96-well plate at a density of 5×10^3 cells per well in 200 μL of culture medium. After 24 h incubation (37° C., 5% CO2), 100 μL of the respective macromer solutions were added to the cells in triplicates. After 24 h incubation, cells were washed twice with sterile PBS before the addition of 100 μL thiazolyl blue tetrazolium bromide (MTT) working solution (5 mg/mL in PBS). After 1 h incubation, the liquid was discarded and 100 μl of DMSO was added to dissolve the formazan crystals. Finally, the absorbance was measured at 540 nm using a microplate reader.

PVA-TRAP6: water-soluble conjugate of cysteine-containing TRAP6 peptide (SFLLRNPNC) on PVA-norbornene backbone by thiol-ene photo-click conjugation (SFLLRNPNC(PVA‑norbornene 22 kDa))
clotting time (CT) (whole blood; 0.1 mM TRAP6 equivalent, compared with TRAP6 0.1 mM): very comparable to that of TRAP6
maximum clot firmness (MCF) (whole blood; 0.1 mM, compared with TRAP6 control): relatively less than that of TRAP6 control
clotting time (CT) vs saline control (whole blood): significantly shorten
clot formation time (CFT) vs saline control (whole blood): significantly shorten
clotting time (CT) as % of the physiological CT (whole blood; 0.1% PVA-TRAP6 solution): ~45%
optimal hemostatic concentration (whole blood; peptide concentrations tested 0.01, 0.1, 1 mM, CT): 0.1 mM
cytotoxicity (MTT assay) (C2C12 myoblasts): nontoxic
platelet activation (CD41/CD62P co-expression) (platelets [1]; 1 mM, FIG. 9B): very similar level as TRAP6 control
CD41/CD62p co-expression (CD62p expression in CD41 positive cells) (platelets [1]; 15 min incubation, 0.1 mM, soluble system): ~80%
platelet aggregation curve (platelets [2]; 0.1 mM): comparable to that of TRAP6
aggregation area (platelets [2]): 130 U
total platelet aggregation area (platelets [2]; 1 mM, FIG. 9A): comparable to that of TRAP6

PVA-TRAP6-P: insoluble crosslinked PVA-NB hydrogel particulates surface-functionalized with TRAP6-Cys peptide (SFLLRNPNC(PVA‑NB hydrogel particulates); reading uncertain)
clotting time (CT) as % of the physiological CT (whole blood; particulate suspension 10 wt % in saline): ~50%
platelet activation vs soluble TRAP6 control (FACS) (platelets [1]; particulates): comparable extent as soluble TRAP6 control
percentage of activated platelets (CD41+/CD62p+) (platelets [1]; particulates, 15 min incubation, whole blood): ~55%

PEG-TRAP6: PEG-10k-NHS reacted with the N-terminus of TRAP6, unreacted NHS groups blocked with glycine ({PEG 10 kDa}-SFLLRNPNC; also: unreacted NHS groups of PEG blocked with glycine) [reference compound]
clotting time (CT) vs saline control (whole blood): this effect was lost
clot formation time (CFT) vs saline control (whole blood): this effect was lost

SFLLRN [TRAP6, reference compound]
effective TRAP6-concentration for platelet activation (platelets [3]): 5 to 100 µM
clotting time (CT) vs saline control (whole blood): significant decrease
clot formation time (CFT) vs saline control (whole blood): significant decrease
dose influence on CT (whole blood; peptide concentrations 0.01, 0.1, 1 mM): no significant dose influences
aggregation area (platelets [2]): 147 U

Source: patent US20180243465A1, “HEMOSTATIC MATERIAL” (BAXTER INTERNATIONAL INC., priority 2015, published 2018)
